Experimental data as given in publication PMC6713424 (Journal of Medicinal Chemistry, 2019).
“Also recorded” adds a separate entry of the source.

Assays:
[1] = tested on: HSC-2 human oral cancer cells; assay: MTT cell proliferation assay in HSC-2 cells; assay type: cell-based; settings: HSC-2, 1-100 μM, 24, 48 and 72 h
[2] = tested on: NNMT activity (MNA production) in HSC-2 cells; assay: Cellular MNA levels in HSC-2 cells; assay type: cell-based, human; settings: HSC-2, 100 μM, 72 h; same effect in DMSO control

NC(=O)c1cccc(CN(CC[C@H](N)C(=O)O)C[C@H]2O[C@@H](n3cnc4c(N)ncnc43)[C@H](O)[C@@H]2O)c1 [Compound 1]
effect on cell proliferation (in words) [1]: not significantly inhibited

Nc1ncnc2c1ncn2[C@@H]1O[C@H](CN(CC[C@H](N)C(=O)O)Cc2ccc3ccccc3c2)[C@@H](O)[C@H]1O [Compound 78, (S)-2-Amino-4-((((2R,3S,4R,5R)-5-(6-amino-9H-purin-9-yl)-3,4-dihydroxytetrahydrofuran-2-yl)methyl)(naphthalen-2-ylmethyl)amino)butanoic Acid]
cellular MNA production (in words) [2]: increase in cellular MNA production
effect on cell proliferation (in words) [1]: notable decrease in cell proliferation; also recorded: significant inhibitory effect on cell proliferation

Nc1ncnc2c1ncn2[C@@H]1O[C@H](CN(CCC[C@H](N)C(=O)O)Cc2ccc3ccccc3c2)[C@@H](O)[C@H]1O [Compound 81, (S)-2-Amino-5-((((2R,3S,4R,5R)-5-(6-amino-9H-purin-9-yl)-3,4-dihydroxytetrahydrofuran-2-yl)methyl)(naphthalen-2-ylmethyl)amino)pentanoic Acid]
effect on cell proliferation (in words) [1]: not significantly inhibited
